Reference: BindingDB's records for patent US20250382308 (Nuevolution, 2025)

How the values were obtained:
[1] = target: T1, Bromodomain-containing protein 4 [353-454] (Homo sapiens, UniProt O60885); assay: Bromodomain Assay
T1 construct: 353-454
Method: (§1) The liganded beads were blocked with excess biotin and washed with blocking buffer (SeaBlock (Pierce), 1% BSA (bovine serum albumin), 0.05% Tween 20, 1 mM DTT (dithiothreitol)) to remove unbound ligand and to reduce non-specific phage binding. […] Test compounds were prepared as 1000× stocks in 100% DMSO and subsequently diluted 1:10 in monoethylene glycol (MEG) to create stocks at 100× the screening concentration (resulting stock solution is 10% DMSO/90% MEG). The compounds were then diluted directly into the assays such that the final concentration of DMSO and MEG were 0.1% and 0.9%, respectively. All reactions were performed in polystyrene 96-well plates in a final volume of 0.135 ml. […] The bromodomain concentration in the eluates was measured by qPCR (quantitative real-time polymerase chain reaction).

[2] = target: T2, Bromodomain-containing protein 4 [58-164] (Homo sapiens, UniProt O60885); assay: Bromodomain Assay
T2 construct: 58-164
Method: as §1

[3] = target: cGMP-inhibited 3',5'-cyclic phosphodiesterase 3A (Homo sapiens, UniProt Q14432); assay: Radiometric PDE3A Assay
cGMP-inhibited 3',5'-cyclic phosphodiesterase 3A, sequence (Q14432 whole entry): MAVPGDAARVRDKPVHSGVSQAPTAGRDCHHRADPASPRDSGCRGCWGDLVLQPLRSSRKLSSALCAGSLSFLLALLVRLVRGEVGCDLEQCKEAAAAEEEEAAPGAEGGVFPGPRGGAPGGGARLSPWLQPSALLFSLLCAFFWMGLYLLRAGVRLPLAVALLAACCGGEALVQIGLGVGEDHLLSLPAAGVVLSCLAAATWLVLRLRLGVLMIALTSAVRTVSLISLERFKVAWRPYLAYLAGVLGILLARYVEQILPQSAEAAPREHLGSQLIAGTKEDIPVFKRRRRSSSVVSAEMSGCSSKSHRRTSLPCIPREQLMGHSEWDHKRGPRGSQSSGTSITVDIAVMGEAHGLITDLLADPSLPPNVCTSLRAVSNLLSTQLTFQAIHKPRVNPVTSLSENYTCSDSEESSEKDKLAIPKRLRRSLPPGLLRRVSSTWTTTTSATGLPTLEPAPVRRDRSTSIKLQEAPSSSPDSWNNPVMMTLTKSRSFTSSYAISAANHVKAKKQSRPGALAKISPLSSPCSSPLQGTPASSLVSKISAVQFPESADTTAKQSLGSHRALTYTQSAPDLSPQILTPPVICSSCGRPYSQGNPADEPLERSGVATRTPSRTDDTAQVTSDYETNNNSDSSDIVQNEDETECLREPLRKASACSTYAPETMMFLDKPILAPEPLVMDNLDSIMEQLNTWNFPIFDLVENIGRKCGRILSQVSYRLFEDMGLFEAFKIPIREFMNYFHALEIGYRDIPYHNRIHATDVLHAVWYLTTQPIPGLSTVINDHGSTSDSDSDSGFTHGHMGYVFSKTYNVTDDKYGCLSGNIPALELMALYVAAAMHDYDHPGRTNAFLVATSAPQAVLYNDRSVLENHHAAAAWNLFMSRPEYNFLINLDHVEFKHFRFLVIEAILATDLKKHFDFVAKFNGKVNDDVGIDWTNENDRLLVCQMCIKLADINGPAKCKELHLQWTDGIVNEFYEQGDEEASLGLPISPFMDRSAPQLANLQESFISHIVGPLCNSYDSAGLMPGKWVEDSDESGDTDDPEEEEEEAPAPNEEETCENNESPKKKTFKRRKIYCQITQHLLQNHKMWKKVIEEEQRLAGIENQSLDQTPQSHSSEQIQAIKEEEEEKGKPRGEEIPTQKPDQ
Method: Partially purified human recombinant phosphodiesterase (PDE3A) was obtained by cloning cDNA and expressing in S. frugiperda insect cells using a baculovirus expression system. Cells were harvested from culture by centrifuging at 400×g for 5 minutes. Cell pellet was resuspended in 20 ml of RIPA Buffer (150 mM NaCl, 10 mM Tris, 0.1% NP-40, pH8.3), 4 ml/200 ml of culture, plus protease inhibitors (100 μl/10 ml) and incubated on ice for 10-20 minutes then spun at 3500×g for 10 minutes at 4° C. Supernatant was kept and the pellet thrown away. Tritium-labeled cyclic AMP was hydrolysed to 5′-AMP by PDE3A. The 5′-AMP was then further hydrolysed to adenosine by nucleotidase in snake venom. An anion-exchange resin binds all charged nucleotides and leaves [3H]adenosine as the only labeled compound to be counted by liquid scintillation. The radiometric assay method is a modification of the two-step method of Thompson and Appleman [Biochemistry 10; 311-316; 1971], adapted for a 96 well plate format. 50 μl of diluted PDE3A was incubated with 50 μl of [3H]-CAMP (specific activity 25 Ci/mmol) and 11 μl of 50% DMSO (or compound dilution) for 20 minutes at 30° C. […] 50 μl of supernatant was removed and added to 200 μl of MicroScint-20 in white plates (Greiner 96-well Optiplate) and shaken for 30 minutes before reading on Perkin Elmer TopCount Scintillation Counter.

SMILES | Kd [1] [nM] | Kd [2] [nM] | IC50 [3] [nM]
COc1cc(NC(=O)c2cc3c(nc2N2CCC(F)(F)C2)COC3)cc2c(C)cc(=O)[nH]c12 [US20250382308, Example 16] | 900 | 21 | 
CCN(CC)c1nc2c(cc1C(=O)Nc1cc(OC)c3[nH]c(=O)cc(C)c3c1)COC2 [US20250382308, Example 27] | 600 | 25 | > 10000
